Laboratory results as given in ChEMBL document CHEMBL6134928, “Novel Bicyclic DGK Inhibitors for Treating Metastatic Melanoma” (ACS Med Chem Lett, 2025).

Target: Diacylglycerol kinase alpha (Homo sapiens, UniProt P23743)
Experiment: Inhibition of recombinant human DGKalpha using DLG as substrate preincubated with compound followed by substrate addition and measured after 90 mins in presence of ATP by ADP-Glo reagent based analysis

Diacylglycerol kinase alpha, sequence (P23743 whole entry): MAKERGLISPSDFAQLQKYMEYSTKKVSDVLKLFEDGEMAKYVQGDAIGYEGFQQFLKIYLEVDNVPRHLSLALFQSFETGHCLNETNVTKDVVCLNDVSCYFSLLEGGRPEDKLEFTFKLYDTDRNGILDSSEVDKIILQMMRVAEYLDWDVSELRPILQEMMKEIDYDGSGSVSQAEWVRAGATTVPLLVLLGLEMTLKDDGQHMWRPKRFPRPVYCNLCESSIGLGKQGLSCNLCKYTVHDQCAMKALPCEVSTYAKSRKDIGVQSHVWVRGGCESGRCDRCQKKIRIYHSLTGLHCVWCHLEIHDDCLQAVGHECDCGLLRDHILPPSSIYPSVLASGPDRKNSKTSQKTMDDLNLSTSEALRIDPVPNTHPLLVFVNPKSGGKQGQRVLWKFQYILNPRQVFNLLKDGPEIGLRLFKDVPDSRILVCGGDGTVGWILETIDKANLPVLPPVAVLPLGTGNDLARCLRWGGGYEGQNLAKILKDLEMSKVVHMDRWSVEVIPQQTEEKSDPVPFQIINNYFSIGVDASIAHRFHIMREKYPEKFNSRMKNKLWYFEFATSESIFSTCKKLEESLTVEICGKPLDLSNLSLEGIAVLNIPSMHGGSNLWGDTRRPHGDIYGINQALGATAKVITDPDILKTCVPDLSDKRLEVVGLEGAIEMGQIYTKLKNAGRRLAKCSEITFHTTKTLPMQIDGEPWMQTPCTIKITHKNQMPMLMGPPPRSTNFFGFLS

IC50	SMILES
≤ 10 nM	C[C@@H]1CN(c2nc(=O)n(C)c3c2nnn3C[C@H]2CCCO2)[C@@H](C)CN1C(c1ccc(F)cc1)c1ccc(F)cc1
≤ 10 nM	C[C@@H]1CN(c2nc(=O)n(C)c3c2ncn3CC2(O)CCC2)[C@@H](C)CN1C(c1ccc(Cl)cc1)C1CC(F)(F)C1 (stereo partly specified)
≤ 10 nM	C[C@@H]1CN(c2nc(=O)n(C)c3c2cnn3C)[C@@H](C)CN1C(c1ccc(F)cc1)c1ccc(F)cc1
≤ 10 nM	C[C@@H]1CN(c2nc(=O)n(C)c3c2nnn3C[C@H]2CCCO2)[C@@H](C)CN1C(c1ccc(C(F)(F)F)cn1)c1ccc(C(F)(F)F)cn1
≤ 10 nM	CC[C@@H]1CN(c2nc(=O)n(C)c3c2nc(C)n3C[C@@H]2CCCO2)[C@@H](C)CN1C(c1ccc(C(F)(F)F)cc1)C1CC(F)(F)C1 (stereo partly specified)
≤ 10 nM	Cc1nc2c(N3C[C@@H](C)N(C(c4ccc(F)cc4)c4ccc(F)cc4)C[C@@H]3C)nc(=O)[nH]c2n1C[C@@H]1CCCO1
